Key:
4T1 = experiment: Cytotoxicity assay (MTT), 4T1; assay type: cell-based, mouse; settings: Mus musculus, 4T1; breast cancer cell line; MTT, 48 h; mean ± S.D., 3 experiments; read-out: Cytotoxicity, IC50, 4T1
Procedure: (§1) MCF-7 (human breast adenocarcinoma, estrogen-positive) and 4T1 (mouse carcinoma), as breast cancer cell lines, and H9C2 (rat cardiomyoblasts), NIH 3T3 (mouse fibroblasts), HEKa (primary human epidermal keratinocytes), MDCK (Madin-Darby Canine Kidney) cells, and A7r5 (rat vascular smooth muscle cells), as normal cell lines, were obtained from the American Type Culture Collection [ATCC] collection for use in the current study. All cell lines were cultured in Dulbecco's modified Eagle's medium (DMEM) containing 10% fetal bovine serum (FBS) and 4 mM L-glutamine at 37 °C and 5% CO2.
(§2) Cell viability was assessed by the addition of 3-(4,5-dimethylthiazol-2-yl)-2,5-diphenyltetrazolinium bromide (MTT). Briefly, cells were seeded (2–6 × 10^4 cells/ml) in 96-well plates and allowed to attach for 24 h. Solutions of test compounds were prepared and serially diluted to obtain the appropriate concentrations. The cells were treated with the test compounds at different concentrations (0.032–100 µM) and incubated for 48 h at 37 °C and 5% CO2. Then, the culture medium was removed, and medium containing 0.2 mg/ml MTT was added. After 3 h (37 °C, 5% CO2), the MTT-containing medium was removed, and 200 μl of dimethyl sulfoxide (DMSO) was immediately added to each sample. The absorbance was assessed at 540 nm using a Tecan multiplate reader Infinite 1000 (Austria). The half-maximal inhibitory concentration (IC50) of each compound was calculated using Graph Pad Prism 3.0.

MCF-7 = experiment: Cytotoxicity assay (MTT), MCF-7; assay type: cell-based, human; settings: for IC50: Homo sapiens, MCF7, breast cancer cell line, MTT, 48 h, mean ± S.D., 3 experiments, read-out: Cytotoxicity, IC50, MCF-7
Procedure: as §1, §2

[1] = Cytotoxicity assay (MTT), H9C2; assay type: cell-based, rat; settings: rat, H9C2 cells (cardiomyoblasts); normal cell line; MTT, 48 h; mean ± S.D., 3 experiments
Procedure: as §1, §2

[2] = Cytotoxicity assay (MTT), A7r5; assay type: cell-based, rat; settings: rat, A7r5 cells (vascular smooth muscle cells), normal cell line, mean ± S.D., 3 experiments
Procedure: as §1, §2

[3] = Cytotoxicity assay (MTT), HEKa; assay type: cell-based, human; settings: human, HEKa cells (primary epidermal keratinocytes), normal cell line, mean ± S.D., 3 experiments
Procedure: as §1, §2

[4] = Cytotoxicity assay (MTT), MDCK; assay type: cell-based, Canine; settings: dog, MDCK cells, normal cell line, mean ± S.D., 3 experiments
Procedure: as §1, §2

[5] = Cytotoxicity assay (MTT), 3T3; assay type: cell-based, mouse; settings: mouse, NIH 3T3 cells (fibroblasts), normal cell line, mean ± S.D., 3 experiments
Procedure: as §1, §2

SMILES | IC50 (4T1) [nM] | IC50 (MCF-7) [nM] | IC50 at 48 h [1] [nM] | IC50 at 48 h [2] [nM] | IC50 at 48 h [3] [nM] | IC50 at 48 h [4] [nM] | IC50 at 48 h [5] [nM] | increase of cytotoxicity against MCF-7 cells (MCF-7; cycloheptyl (5) versus cyclohexyl (4))
OC(c1ccccc1)(c1ccccc1)c1[se][n+]2ccccc2c1Br [Compound 2, 3-bromo-2-(hydroxydiphenylmethyl)-[1,2]selenazolo[2,3-a]pyridin-8-ium] | 1100 ± 80 | 390 ± 30 | 4200 ± 300 | 1870 ± 260 | 2780 ± 80 | 6270 ± 290 | 1600 ± 300 | –
Cc1cc[n+]2[se]c(C3(O)CCCCC3)c(Br)c2c1 [Compound 4, 3-bromo-2-(1-hydroxycyclohexyl)-5-methyl-[1,2]selenazolo[2,3-a]pyridin-8-ium] | 450 ± 20 | 1480 ± 40 | 2900 ± 100 | 1930 ± 160 | 2050 ± 50 | 2540 ± 570 | 790 ± 20 | –
OC1(c2[se][n+]3ccccc3c2Br)CCCCCC1.[Br-] [Compound 5, 3-Bromo-2-(1-hydroxycycloheptyl)-[1,2]selenazolo[2,3-a]pyridinium bromide] | 410 ± 50 | 290 ± 10 | 9300 ± 200 | 1920 ± 440 | 2010 ± 80 | 1510 ± 370 | 980 ± 30 | approximately 3 times

Source: article PMC7725824, “Fused isoselenazolium salts suppress breast cancer cell growth by dramatic increase in pyruvate-dependent mitochondrial ROS production” (Scientific Reports, 2020)
